Data as given in patent US10787430B2, “Hemoglobin modifier compounds and uses thereof” (FronThera U.S. Pharmaceuticals LLC, priority 2016, dated 2020).
Values after ≈ are worked out from the molar mass of the structure shown. Where two headings read alike, the source gives them in different places.

Key:
[1] = Microsome stability evaluation in rat liver microsomes; type: in vitro ADME; conditions: read-out: Rat microsome, t½
Description: Example A6: Microsome Stability Evaluation in Human and Rat Liver Microsomes

CYP2C8 = biological target: T1, CYP2C8 (Homo sapiens, UniProt P10632); test: CYP inhibition evaluation in human liver microsomes; type: in vitro ADME
T1 construct: from tissue; host or cells: human liver microsomes
T1 sequence (P10632 1-490): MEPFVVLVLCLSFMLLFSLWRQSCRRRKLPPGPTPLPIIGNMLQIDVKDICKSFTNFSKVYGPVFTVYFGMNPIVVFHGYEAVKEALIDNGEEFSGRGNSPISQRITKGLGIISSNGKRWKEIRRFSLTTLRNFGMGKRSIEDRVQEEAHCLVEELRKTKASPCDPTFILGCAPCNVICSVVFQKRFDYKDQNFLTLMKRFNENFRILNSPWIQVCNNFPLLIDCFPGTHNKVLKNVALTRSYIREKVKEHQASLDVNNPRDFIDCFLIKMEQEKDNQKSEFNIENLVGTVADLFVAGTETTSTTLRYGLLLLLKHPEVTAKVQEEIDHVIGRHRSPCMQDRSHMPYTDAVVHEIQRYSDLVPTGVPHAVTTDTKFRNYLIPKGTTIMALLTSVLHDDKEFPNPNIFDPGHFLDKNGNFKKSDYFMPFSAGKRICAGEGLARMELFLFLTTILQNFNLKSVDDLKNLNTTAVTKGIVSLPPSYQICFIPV
Description: (§1) Example A5: CYP Inhibition Evaluation in Human Liver Microsomes

CYP2C19 = biological target: T2, CYP2C19 (Homo sapiens, UniProt P33261); test: as above; type: in vitro ADME
T2 construct: from tissue; host or cells: human liver microsomes
Description: as §1

CYP2C9 = biological target: T3, CYP2C9 (Homo sapiens, UniProt P11712); test: as above; type: in vitro ADME
T3 construct: from tissue; host or cells: human liver microsomes
Description: as §1

CYP1A2 = biological target: T4, CYP1A2 (Homo sapiens, UniProt P05177); test: as above; type: in vitro ADME
T4 construct: from tissue; host or cells: human liver microsomes
T4 sequence (P05177 1-516): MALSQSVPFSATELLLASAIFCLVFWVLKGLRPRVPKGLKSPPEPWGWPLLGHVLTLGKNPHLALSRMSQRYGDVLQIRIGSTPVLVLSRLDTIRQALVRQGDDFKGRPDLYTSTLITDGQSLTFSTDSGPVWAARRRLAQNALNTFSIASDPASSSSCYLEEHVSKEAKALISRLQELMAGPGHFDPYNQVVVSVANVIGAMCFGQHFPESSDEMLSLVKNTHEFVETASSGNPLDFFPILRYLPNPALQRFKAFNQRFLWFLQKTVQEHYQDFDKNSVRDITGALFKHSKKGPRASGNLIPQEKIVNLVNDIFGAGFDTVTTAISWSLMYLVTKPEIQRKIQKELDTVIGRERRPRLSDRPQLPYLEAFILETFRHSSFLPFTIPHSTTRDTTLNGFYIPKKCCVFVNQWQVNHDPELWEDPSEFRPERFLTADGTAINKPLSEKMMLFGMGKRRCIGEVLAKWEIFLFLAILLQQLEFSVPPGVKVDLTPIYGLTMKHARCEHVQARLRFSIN
Description: as §1

CYP2D6 = biological target: T5, CYP2D6 (Homo sapiens, UniProt P10635); test: as above; type: in vitro ADME
T5 construct: from tissue; host or cells: human liver microsomes
Description: as §1

CYP3A4-M = biological target: T6, CYP3A4-M (Homo sapiens, UniProt P08684); test: as above; type: in vitro ADME
T6 construct: from tissue; host or cells: human liver microsomes
Description: as §1

[2] = biological target: T7, hemoglobin (20% hct blood) (Homo sapiens, UniProt P68871+P69905); test: Dose-dependent whole blood OEC studies; type: cell-based; conditions: 37° C., 1 hr
T7 construct: Normal whole blood was collected from adult healthy donors; from tissue; host or cells: normal human whole blood (red blood cells), adult healthy donors
Procedure, shortened: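 Human whole blood at 20% hct shaken with 0.2, 0.5 or 1 mM compound at 37° C. for 1 hr; DMSO (1%) vehicle control. Oxygen equilibrium curves gave pO2 and Hb oxygen saturation (sO2), reported as delta p50%.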

[3] = Solubility in JP1, JP2 and FaSSIF buffers; type: physicochemical; conditions: 25 °C, thermodynamic from solid, room temperature
Experimental: Conditions: 1. JP1 buffer (84 mM HCl, 34.22 mM NaCl, pH 1.2); 2. JP2 buffer (50 mM phosphate buffer at pH 6.8); 3. FaSSIF buffer, pH 6.5 (Preparation: In about 0.9 L of purified water dissolve 0.420 g of NaOH (pellets), 4.470 g of NaH2PO4 (dihydrate), 6.186 g of NaCl; Adjust the pH to 6.5 with Sodium hydroxide 1N or Hydrochloric acid 1N, to make up to volume (1 L) with purified water at room temperature; Add 0.224 g of SIF Powder Original to about 0.5 L of pH 6.5 blank buffer and stir until powder is completely dissolved; Let stand for 2 hour. FaSSIF buffer is now ready to use.
Procedures: 1. accurately weighed about 2 mg test compounds and controls in whatman vials, then transferred 450 μL buffer in to the vials; 2. Filter pistons of miniuniprep vials were placed and compressed to the position of the liquid level to allow for contact. Vortexed for 2 minutes; 3. […] Miniunipreps were compressed to prepare the filtrates for injection into HPLC system; 5. Diluted the filtrates with buffer by a factor of 50 fold to make diluents; 6. Determined the test compound concentration of the diluents and filtrates using HPLC-UV.

T7 sequence (P69905 2-142 limits assumed): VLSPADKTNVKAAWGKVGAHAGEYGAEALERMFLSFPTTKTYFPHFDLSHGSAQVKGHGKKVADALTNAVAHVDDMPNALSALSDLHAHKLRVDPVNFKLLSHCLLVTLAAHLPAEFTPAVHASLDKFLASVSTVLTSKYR
T7 sequence (P68871 2-147 limits assumed): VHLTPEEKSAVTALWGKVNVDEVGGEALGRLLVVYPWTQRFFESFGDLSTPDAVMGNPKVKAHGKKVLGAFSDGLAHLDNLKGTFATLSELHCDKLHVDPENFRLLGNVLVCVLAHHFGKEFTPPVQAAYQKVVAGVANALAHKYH
T2 sequence (P33261 whole entry): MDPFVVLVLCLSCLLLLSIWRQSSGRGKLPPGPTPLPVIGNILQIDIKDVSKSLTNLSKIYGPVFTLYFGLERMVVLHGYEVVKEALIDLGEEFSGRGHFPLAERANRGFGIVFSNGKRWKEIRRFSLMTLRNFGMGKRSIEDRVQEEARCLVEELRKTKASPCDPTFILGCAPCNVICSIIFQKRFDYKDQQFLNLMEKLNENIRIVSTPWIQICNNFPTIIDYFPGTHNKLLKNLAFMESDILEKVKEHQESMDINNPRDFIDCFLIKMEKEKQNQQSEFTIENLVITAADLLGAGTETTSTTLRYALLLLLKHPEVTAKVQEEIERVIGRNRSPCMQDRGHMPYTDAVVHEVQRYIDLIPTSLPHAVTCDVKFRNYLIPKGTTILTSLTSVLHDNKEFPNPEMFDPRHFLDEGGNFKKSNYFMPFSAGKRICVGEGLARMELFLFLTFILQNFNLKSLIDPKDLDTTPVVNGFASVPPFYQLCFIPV
T3 sequence (P11712 whole entry): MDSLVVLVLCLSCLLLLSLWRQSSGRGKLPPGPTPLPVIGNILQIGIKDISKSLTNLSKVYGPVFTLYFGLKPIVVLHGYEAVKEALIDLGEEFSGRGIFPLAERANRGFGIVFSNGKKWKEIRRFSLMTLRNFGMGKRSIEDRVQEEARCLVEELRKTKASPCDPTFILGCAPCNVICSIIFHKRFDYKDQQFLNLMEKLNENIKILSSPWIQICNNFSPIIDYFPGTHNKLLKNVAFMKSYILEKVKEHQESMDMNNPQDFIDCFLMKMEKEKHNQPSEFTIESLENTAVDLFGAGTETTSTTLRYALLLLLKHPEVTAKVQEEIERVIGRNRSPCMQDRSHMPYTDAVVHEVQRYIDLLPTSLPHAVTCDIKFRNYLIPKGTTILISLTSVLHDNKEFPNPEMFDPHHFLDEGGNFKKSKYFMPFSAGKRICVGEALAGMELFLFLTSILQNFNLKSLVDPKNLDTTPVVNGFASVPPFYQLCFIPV
T5 sequence (P10635 whole entry): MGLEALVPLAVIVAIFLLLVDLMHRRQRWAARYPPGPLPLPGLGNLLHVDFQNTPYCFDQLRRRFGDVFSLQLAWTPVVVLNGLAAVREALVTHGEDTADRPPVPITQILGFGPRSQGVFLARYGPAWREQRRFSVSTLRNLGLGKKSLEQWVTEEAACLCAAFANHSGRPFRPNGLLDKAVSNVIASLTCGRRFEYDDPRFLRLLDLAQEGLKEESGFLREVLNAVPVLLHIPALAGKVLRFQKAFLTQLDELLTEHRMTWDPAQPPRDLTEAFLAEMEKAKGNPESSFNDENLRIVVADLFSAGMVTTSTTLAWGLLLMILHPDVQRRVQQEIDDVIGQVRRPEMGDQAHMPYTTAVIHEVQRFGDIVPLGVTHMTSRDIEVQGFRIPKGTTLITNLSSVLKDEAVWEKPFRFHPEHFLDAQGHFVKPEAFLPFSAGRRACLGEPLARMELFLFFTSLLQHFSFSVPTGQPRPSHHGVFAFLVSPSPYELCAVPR
T6 sequence (P08684 whole entry): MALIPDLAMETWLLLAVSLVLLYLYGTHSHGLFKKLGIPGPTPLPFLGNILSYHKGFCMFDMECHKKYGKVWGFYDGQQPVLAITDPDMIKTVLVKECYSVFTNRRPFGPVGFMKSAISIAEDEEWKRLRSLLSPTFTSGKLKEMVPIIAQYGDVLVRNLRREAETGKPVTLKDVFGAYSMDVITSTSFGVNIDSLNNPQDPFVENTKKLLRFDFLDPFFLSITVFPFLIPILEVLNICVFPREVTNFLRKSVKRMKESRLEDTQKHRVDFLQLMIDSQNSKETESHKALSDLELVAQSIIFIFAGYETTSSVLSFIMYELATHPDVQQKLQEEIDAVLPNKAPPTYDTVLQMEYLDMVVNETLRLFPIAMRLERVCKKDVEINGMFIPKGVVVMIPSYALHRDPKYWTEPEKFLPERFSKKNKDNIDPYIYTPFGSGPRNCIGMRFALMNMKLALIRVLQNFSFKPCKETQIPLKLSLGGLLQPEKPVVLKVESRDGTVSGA

half-life [1]: 18 min
IC50 (CYP2C8): 25.2 µM
IC50 (CYP2C19): 8.61 µM
IC50 (CYP2C9): 10.6 µM
IC50 (CYP1A2): > 30 µM
IC50 (CYP2D6): > 30 µM
IC50 (CYP3A4-M): > 30 µM
delta p50 0.2 mM ([2]; 0.2 mM compound): −15.20%
delta p50 0.5 mM ([2]; 0.5 mM compound): −46.80%
solubility at 24 h ([3]; aqueous buffer, JP2 buffer (50 mM phosphate) pH 6.8, 24 hr, read-out: JP2 Solubility): 15.1 µg/mL (≈ 44.4 µM)
solubility at 24 h ([3]; simulated gastric fluid, JP1 buffer pH 1.2, 24 hr, read-out: JP1 Solubility): 20 µg/mL (≈ 58.6 µM)
solubility at 24 h ([3]; FaSSIF buffer pH 6.5, 24 hr, read-out: FaSSIF Solubility): 26.6 µg/mL (≈ 78.1 µM)
Structure (SMILES): [2H]C([2H])(Oc1cccc(O)c1C=O)c1cncnc1-c1ccnn1C(C)C [Example 38, 2-hydroxy-6-((4-(1-isopropyl-1H-pyrazol-5-yl)pyrimidin-5-yl)methoxy-d2)benzaldehyde]
